Literature values, collected in PMC4806784 (Investigational new drugs, 2015).
Like-named read-outs stand apart in the source and are kept apart here.

Settings: 60 mg/m^2 q 3 week, cited from earlier work
[1] = chemotherapy-naïve elderly patients with advanced non-small cell lung cancer, ref a more recent trial
[2] = metastatic breast cancer, second line

CC(=O)O[C@@]12CO[C@@H]1C[C@H](O)[C@@]1(C)C(=O)[C@H](O)C3=C(C)[C@@H](OC(=O)[C@H](O)[C@@H](NC(=O)OC(C)(C)C)c4ccccc4)C[C@@](O)([C@@H](OC(=O)c4ccccc4)[C@H]21)C3(C)C [docetaxel]
incidence of Grade 3 to 4 neutropenia [1]: 89% | incidence of febrile neutropenia [1]: 15% | incidence of Grade 3 to 4 neutropenia [2]: 76% | incidence of febrile neutropenia [2]: 5%
